Reference: patent US6063612A, “Antiviral reagents based on RNA-binding proteins” (priority 1991, dated 2000)

What was measured:
[1] = test system: HIV-1 TAR RNA; assay: RNA cleavage reaction, HIV-1 TAR substrate; type: biochemical; conditions: 40 μM, not bound to RNA-binding protein (control)
Procedure: The above described polypeptides were tested for their ability to cleave RNA substrates which contained cognate binding sites. Typically, RNA target molecules containing the binding sites were 5'-end-labeled, purified on denaturing polyacrylamide gels, and annealed for use as substrates for cleavage (Example 2). A typical cleavage reaction contained 10^3 cpm of end-labeled RNA and 40-100 ng of polypeptide. Example 4A describes RNA cleavage reactions utilizing the TAT24C-phen polypeptide. The target RNA was incubated with TAT24C-phen at 25° C. for 10 min before the cleavage was initiated by adding CuSO4 and mercaptopropionic acid. After incubating for a given period of time, the reaction was stopped by the addition of 2,9-dimethyl-1,10-phenanthroline. RNAs were then isolated and analyzed on denaturing 15% sequencing gels. […] This is an expected site of cleavage based on binding of the polypeptide at the three-nucleotide bulge. A possible secondary cleavage site may be due to flexibility of the phenothroline-containing protein of the polypeptide, allowing it to reach to stem on the other side of the binding site.
Cleavage reactions using the polypeptide-cleaving reagents of the present invention were typically performed as follows. […]
RNAs from all reactions were ethanol precipitated and analyzed on a denaturing (8.3 M urea) 15% polyacrylamide gel. […]

[2] = test system: wild-type TAR (wt-TAR) site; conditions: RNA containing the TAR site; cited from earlier work
[3] = test system: HIV-1 LTR-linked gene expression; conditions: TAT protein taken up by cells; cited from earlier work

Cu(II)-1,10-phenanthroline
cleavage pattern on HIV-1 TAR by free Cu(II)-phenanthroline [1]: cleaves everywhere, but the unpaired bases at the loop (especially G32) and the bulge are most reactive

synthetic 14-residue polypeptide: synthetic polypeptide spanning the basic region, amino acid residues 48-61 of the TAT protein (GRKKRRQRRRAHQN; UniProt P04608 48-61, looked up, fragment)
binding to TAR-RNA (in words) [2]: bound TAR-RNA as well

B1: TAT protein: HIV-1 encoded 86 amino acid transactivator protein (protein)
chain: MEPVDPRLEPWKHPGSQPKTACTNCYCKKCCFHCQVCFITKALGISYGRKKRRQRRRPPQGSQTHQVSLSKQPTSQSRGDPTGPKE
effect on HIV-1 LTR-linked gene expression [3]: specifically activates HIV-1 LTR-linked gene expression
